The structures appear in SMILES notation.

Series [1] has as its system IL-12p70. The experiment in a line: Serum IL-12p70 (sIL-12) ELISA in BALB/c mice. It is filed as in vivo, mouse. How it is done: Second, all animal study protocols were approved by the Institutional Animal Care and Use Committee (IACAU) of National Yang Ming University. Mirtazapine (0.25 mg) was dissolved in 0.05 ml of 0.9% NaCl plus 0.5% absolute ethanol for each mouse (i.e. 10 mg/kg.) Male BALB/c mice (initial weights 25±2 g, and purchased from the National Laboratory Animal Center, Taipei, Taiwan) were housed in the cages, five mice per cage, under a 12:12 h reverse light/dark cycle with lights off at 6 pm Animals were handled and weighed daily for a week to reduce any non-specific stress responses. And then, please refer to FIG. 1A and FIG. 1B, FIG. 1A and FIG. 1B are diagrams showing the experimental designs according to an embodiment of the present invention. […] “Wild-type” means the mice are monitored without tumor inoculation and mirtazapine treatment, drug means the mice are monitored with continuous mirtazapine treatment but without tumor inoculation, never means the mice are monitored with tumor inoculation and daily 0.05 ml of 0.9% NaCl plus 0.5% absolute ethanol treatment but without mirtazapine treatment, always means the mice are monitored with mirtazapine treatment initiated 2 weeks before the tumor inoculation, and concurrent means the mice are monitored with tumor inoculation and mirtazapine treatment on the same day, and after means the mice are monitored with mirtazapine treatment initiated 2 weeks post the tumor inoculation. That is, the mice were assayed on day 22 for behaviors, and then sacrificed for the measurement of lymphocyte subsets and performed with ex vivo autoradiography.
As to the quantification of interleukin-12 (hereafter called “IL-12”), the whole blood withdrawn from the pouch of each mouse was centrifuged at 600×g for 20 min, and serum was collected. The serum IL-12p70 (sIL-12) level was determined using an ELISA kit (R&D Systems, Taiwan). Identification for the lymph node cluster of differentiated CD4+ T helper and CD8+T-cytotoxic lymphocyte subsets was assayed. Briefly, the lymphocytes isolated from the lymph nodes of groins of mice were stained with phycoerythrin-conjugated antimouse CD4 (CD4-PE) monoclonal antibody and peridininchlorophyll-protein-complex-conjugated anti-mouse CD8 (CD8-PerCP) monoclonal antibody (BioLegend, USA). Lymphocyte subsets were identified by FACS analysis using a FACS Calibur flow cytometer. Immunohistochemistry (IHC) of CD4 and CD8 was also performed on day 42 post the tumor inoculation. Tumors were then removed, paraffin embedded, and […] sectioning was performed. The sections were immunohistostained with antibodies against CD4 (BioLegend, USA) and CD8 (BioLegend, USA), respectively. The procedures of immunohistostaining were followed the protocols provided with the IHC kit (Millipore, USA). All images were digitally captured on a Scanscope CS system (Aperio, USA).
On the technique in general: An ELISA detects its analyte on a solid surface through an enzyme-linked reagent.

The next series deals with TNF-α. As to the kind of experiment: Serum TNF-α ELISA. It is filed as in vivo, mouse. The settings on record: tumor-bearing mice with vs without mirtazapine; weekly up to 6 weeks post tumor inoculation.
Series [2] concerns IL-12p70. The experiment in a line: Serum sIL-12 in SCID mice. It is filed as in vivo, mouse. The settings on record: SCID mice after mirtazapine treatment. The source says:
Also, Applicant divides other six-weeks-old immunodeficient male SCID mice (purchased from the National Laboratory Animal Center, Taiwan) into two groups, such as the group named “never-SCID” (hereafter called “never-SCID”) and the group named “always-SCID” (hereafter called “always-SCID”), as control groups for verifying the involvement of the immune system in the inhibition of the tumor growth by mirtazapine. Never-SCID means that the mice are monitored with tumor inoculation but without mirtazapine treatment, and always-SCID means the mice are monitored with mirtazapine treatment initiated 2 weeks before tumor inoculation. As to the quantification of interleukin-12 (hereafter called “IL-12”), the whole blood withdrawn from the pouch of each mouse was centrifuged at 600×g for 20 min, and serum was collected. The serum IL-12p70 (sIL-12) level was determined using an ELISA kit (R&D Systems, Taiwan). Identification for the lymph node cluster of differentiated CD4+ T helper and CD8+T-cytotoxic lymphocyte subsets was assayed. Briefly, the lymphocytes isolated from the lymph nodes of groins of mice were stained with phycoerythrin-conjugated antimouse CD4 (CD4-PE) monoclonal antibody and peridininchlorophyll-protein-complex-conjugated anti-mouse CD8 (CD8-PerCP) monoclonal antibody (BioLegend, USA). Lymphocyte subsets were identified by FACS analysis using a FACS Calibur flow cytometer. […]

The conditions of series [3]: mouse, in vivo. How it is done: Second, all animal study protocols were approved by the Institutional Animal Care and Use Committee (IACAU) of National Yang Ming University. Mirtazapine (0.25 mg) was dissolved in 0.05 ml of 0.9% NaCl plus 0.5% absolute ethanol for each mouse (i.e. 10 mg/kg.) Male BALB/c mice (initial weights 25±2 g, and purchased from the National Laboratory Animal Center, Taipei, Taiwan) were housed in the cages, five mice per cage, under a 12:12 h reverse light/dark cycle with lights off at 6 pm Animals were handled and weighed daily for a week to reduce any non-specific stress responses. […] “Wild-type” means the mice are monitored without tumor inoculation and mirtazapine treatment, drug means the mice are monitored with continuous mirtazapine treatment but without tumor inoculation, never means the mice are monitored with tumor inoculation and daily 0.05 ml of 0.9% NaCl plus 0.5% absolute ethanol treatment but without mirtazapine treatment, always means the mice are monitored with mirtazapine treatment initiated 2 weeks before the tumor inoculation, and concurrent means the mice are monitored with tumor inoculation and mirtazapine treatment on the same day, and after means the mice are monitored with mirtazapine treatment initiated 2 weeks post the tumor inoculation. […]

Method for TNF-α: As to the quantification of TNF-α, the whole blood withdrawn from the pouch of each mouse once a week for up to 6 weeks was centrifuged at 600×g for 20 min, and serum was collected. The serum TNF-α level was evaluated with an ELISA kit (eBioscience, USA).

On to `CN1CCN2c3ncccc3Cc3ccccc3C2C1` (stereo not drawn) [mirtazapine], for which the sIL-12 concentration increase is listed as 16 folds in the series with IL-12p70 [1] (group after (never: 13 folds)) and 17 folds in the series with IL-12p70 [1] (group concurrent (never: 13 folds)). In addition, the sIL-12 concentration entry in the series with IL-12p70 [1] (group after, 6 weeks post tumor inoculation) is “dropped to the control level”; with IL-12p70 [1] (group drug, 4 wks post tumor cell inoculation, never 7 pg/ml), 42 pg/mL. The “sIL-12 concentration increase to peak level” value in the series on IL-12p70 [1] (group always, peak at 1 wk post tumor cell inoculation) is listed as 18 folds; in the series with IL-12p70 [1] (group drug (no tumor), peak at 0 wk post tumor cell inoculation), 13 folds. The “serum TNF-α level” value with TNF-α is reported as “no significant difference”. In the series with IL-12p70 [2], the “increase of sIL-12 level in SCID mice” value was “not found”. Besides, in series [3], the “body weight change (general toxicity)” value is “no significant body weight change”.

(Values after patent US20140271727A1, “METHOD OF USING AN ANTIDEPRESSANT FOR INCREASING IMMUNITY OF A SUBJECT AND TREATING CANCER” (NATIONAL YANG-MING UNIVERSITY, priority 2013, published 2014).)
